{"source": "patent US8299056B2", "about": "(Signal Pharmaceuticals, LLC, priority 2008, dated 2012)", "biological_target": "T1, Syk (Homo sapiens, UniProt P43405)", "T1 construct": "purchased Carna Biosciences", "assay": "Syk HTRF assay", "assay_type": "biochemical", "procedure,_shortened": "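Read-out is the 665 nm/615 nm time-resolved fluorescence ratio after EDTA stop and Eu-anti-phosphotyrosine plus streptavidin-DyLight 647 detection. Reaction ran 1 h at room temperature with start mix of 87.5 μM ATP and 80 nM substrate peptide in pH 7.6 HEPES/MgCl2 buffer.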", "key": {"[1]": {"conditions": "activity levels A-D, read-out: Activity Level (IC50 in the Syk HTRF assay)"}, "[2]": {"conditions": "read-out: Activity Level (Syk HTRF assay IC50)"}, "[3]": {"conditions": "IC50 activity level, read-out: Activity Level"}}, "note": "pIC50: −log10 of the molar value. Where two headings read alike, the source gives them in different places."}
{"molecule": "O=C1NCCC1NCc1cccc2nc(Nc3ccc(C(F)(F)F)cc3)nn12", "note": "(racemic) [Example 207, (±)-3-((2-(4-(trifluoromethyl)phenylamino)-[1,2,4]triazolo[1,5-a]pyridin-5-yl)methylamino)pyrrolidin-2-one]", "values": [{"measurement": "pIC50", "setting": "[1]", "value": "5.00 to 6.00"}]}
{"molecule": "CNC(=O)c1ccc(Nc2nc3cccc(-c4cccc(C(N)=O)c4)n3n2)cc1", "note": "[compound 18, 4-(5-(3-carbamoylphenyl)-[1,2,4]triazolo[1,5-a]pyridin-2-ylamino)-N-methylbenzamide]", "values": [{"measurement": "pIC50", "setting": "[2]", "value": "6.00 to 6.30"}]}
{"molecule": "c1ccc(-c2cccc3nc(Nc4ccc5cn[nH]c5c4)nn23)cc1", "note": "[compound 68]", "values": [{"measurement": "pIC50", "setting": "[2]", "value": "6.60 to 11.30"}]}
{"molecule": "Cc1n[nH]c2ccc(Nc3nc4cccc(CC5CCOCC5)n4n3)cc12", "note": "[compound 116, N-(3-methyl-1H-indazol-5-yl)-5-((tetrahydro-2H-pyran-4-yl)methyl)-[1,2,4]triazolo[1,5-a]pyridin-2-amine]", "values": [{"measurement": "pIC50", "setting": "[2]", "value": "6.60 to 11.30"}]}
{"molecule": "OC[C@@H]1CCCN1Cc1cccc2nc(Nc3ccc(C(F)(F)F)cc3)nn12", "note": "[Example 271, (S)-(1-((2-(4-(trifluoromethyl)phenylamino)-[1,2,4]triazolo[1,5-a]pyridin-5-yl)methyl)pyrrolidin-2-yl)methanol]", "values": [{"measurement": "pIC50", "setting": "[1]", "value": "5.00 to 6.00"}]}
{"molecule": "NC(=O)c1ccc(Nc2nc3cccc(N[C@H]4CC[C@@H](O)CC4)n3n2)cn1", "note": "[Example 370, cis-5-(5-(4-hydroxycyclohexylamino)-[1,2,4]triazolo[1,5-a]pyridin-2-ylamino)picolinamide]", "values": [{"measurement": "pIC50", "setting": "[1]", "value": "6.00 to 6.30"}]}
{"molecule": "C[C@H](NCc1cccc2nc(Nc3ccc(C(F)(F)F)cc3)nn12)C(N)=O", "note": "[Example 222, (S)-2-((2-(4-(trifluoromethyl)phenylamino)-[1,2,4]triazolo[1,5-a]pyridin-5-yl)methylamino)propanamide]", "values": [{"measurement": "pIC50", "setting": "[1]", "value": "5.00 to 6.00"}]}
{"molecule": "c1ccc(Nc2nc3cccc(OC4CCCCC4)n3n2)cc1", "note": "[Example 510]", "values": [{"measurement": "pIC50", "setting": "[3]", "value": "5.00 to 6.00"}]}
{"molecule": "O[C@H]1CC[C@@H](Oc2cccc3nc(Nc4ccc(F)cc4)nn23)CC1", "note": "[Example 417, cis-4-(2-(4-fluorophenylamino)-[1,2,4]triazolo[1,5-a]pyridin-5-yloxy)cyclohexanol]", "values": [{"measurement": "pIC50", "setting": "[3]", "value": "5.00 to 6.00"}]}
{"molecule": "CC(C)(C)OC(=O)N1C(=O)C(C)(C)c2ccc(Nc3nc4cccc(N[C@H]5CC[C@@H](O)CC5)n4n3)cc21", "note": "[Example 545, cis-tert-butyl 6-(5-(4-hydroxycyclohexylamino)-[1,2,4]triazolo[1,5-a]pyridin-2-ylamino)-3,3-dimethyl-2-oxoindoline-1-carboxylate]", "values": [{"measurement": "pIC50", "setting": "[3]", "value": "6.60 to 11.30"}]}
{"molecule": "CC1(C)C(=O)Nc2cc(Nc3nc4cccc(O[C@H]5CCOC5)n4n3)ccc21", "note": "[compound 133, (S)-3,3-dimethyl-6-(5-(tetrahydrofuran-3-yloxy)-[1,2,4]triazolo[1,5-a]pyridin-2-ylamino)indolin-2-one]", "values": [{"measurement": "pIC50", "setting": "[2]", "value": "6.30 to 6.60"}]}
{"molecule": "CC1(C)NC(=O)c2cc(Nc3nc4cccc(CC5CCOCC5)n4n3)ccc21", "note": "[compound 113, 3,3-dimethyl-6-(5-((tetrahydro-2H-pyran-4-yl)methyl)-[1,2,4]triazolo[1,5-a]pyridin-2-ylamino)isoindolin-1-one]", "values": [{"measurement": "pIC50", "setting": "[2]", "value": "5.00 to 6.00"}]}
{"molecule": "Cc1cc(Nc2nc3cccc(Cc4ccnc(O)c4)n3n2)cc2[nH]ncc12", "note": "[compound 124, 4-((2-(4-methyl-1H-indazol-6-ylamino)-[1,2,4]triazolo[1,5-a]pyridin-5-yl)methyl)pyridine-2-ol]", "values": [{"measurement": "pIC50", "setting": "[2]", "value": "6.60 to 11.30"}]}
{"molecule": "O[C@H]1CCCC[C@@H]1Nc1cccc2nc(Nc3ccc(C(F)(F)F)cc3)nn12", "note": "[Example 334, (1S,2S)-2-(2-(4-(trifluoromethyl)phenylamino)-[1,2,4]triazolo[1,5-a]pyridin-5-ylamino)cyclohexanol]", "values": [{"measurement": "pIC50", "setting": "[1]", "value": "5.00 to 6.00"}]}
{"molecule": "NC(=O)c1ccc(Cc2cccc3nc(Nc4ccccc4)nn23)cc1", "note": "[Example 452, 4-((2-(phenylamino)-[1,2,4]triazolo[1,5-a]pyridin-5-yl)methyl)benzamide]", "values": [{"measurement": "pIC50", "setting": "[3]", "value": "5.00 to 6.00"}]}
{"molecule": "Nc1n[nH]c2cc(Nc3nc4cccc(N[C@H]5CCCNC5)n4n3)ccc12", "note": "[Example 451, (S)-N^2-(3-amino-1H-indazol-6-yl)-N^5-(piperidin-3-yl)-[1,2,4]triazolo[1,5-a]pyridine-2,5-diamine]", "values": [{"measurement": "pIC50", "setting": "[3]", "value": "6.60 to 11.30"}]}
{"molecule": "CN(C)c1ccc(Nc2nc3cccc(-c4ccccc4)n3n2)cc1", "note": "[Example 94]", "values": [{"measurement": "pIC50", "setting": "[2]", "value": "6.60 to 11.30"}]}
{"molecule": "O=C1NCC[C@H]1NCc1cccc2nc(Nc3ccc(C(F)(F)F)cc3)nn12", "note": "[Example 205, (R)-3-((2-(4-(trifluoromethyl)phenylamino)-[1,2,4]triazolo[1,5-a]pyridin-5-yl)methylamino)pyrrolidin-2-one]", "values": [{"measurement": "pIC50", "setting": "[1]", "value": "5.00 to 6.00"}]}
{"molecule": "Cc1n[nH]c2cc(Nc3nc4cccc(CC5CCOCC5)n4n3)ccc12", "note": "[Example 199, N-(3-methyl-1H-indazol-6-yl)-5-((tetrahydro-2H-pyran-4-yl)methyl)-[1,2,4]triazolo[1,5-a]pyridin-2-amine]", "values": [{"measurement": "pIC50", "setting": "[1]", "value": "6.60 to 11.30"}]}
{"molecule": "O=c1cc(C(O)c2cccc3nc(Nc4ccc(C(F)(F)F)cc4)nn23)nc[nH]1", "note": "(stereo not drawn) [Example 193, 6-(hydroxy(2-(4-(trifluoromethyl)phenylamino)-[1,2,4]triazolo[1,5-a]pyridin-5-yl)methyl)pyrimidin-4(3H)-one]", "values": [{"measurement": "pIC50", "setting": "[2]", "value": "6.60 to 11.30"}]}
{"molecule": "OCC1CCN(Cc2cccc3nc(Nc4ccc(C(F)(F)F)cc4)nn23)CC1", "note": "[Example 274, (1-((2-(4-(trifluoromethyl)phenylamino)-[1,2,4]triazolo[1,5-a]pyridin-5-yl)methyl)piperidin-4-yl)methanol]", "values": [{"measurement": "pIC50", "setting": "[1]", "value": "5.00 to 6.00"}]}
{"molecule": "CNC(=O)c1ccc(Nc2nc3cccc(-c4ccccc4F)n3n2)cc1", "note": "[compound 21, 4-(5-(2-fluorophenyl)-[1,2,4]triazolo[1,5-a]pyridin-2-ylamino)-N-methylbenzamide]", "values": [{"measurement": "pIC50", "setting": "[2]", "value": "6.00 to 6.30"}]}
{"molecule": "CC1(C)C(=O)Nc2cc(Nc3nc4cccc(N[C@H]5CC[C@@](C)(O)CC5)n4n3)ccc21", "note": "[Example 163, cis-6-(5-(4-hydroxy-4-methylcyclohexylamino)-[1,2,4]triazolo[1,5-a]pyridin-2-ylamino)-3,3-dimethylindolin-2-one]", "values": [{"measurement": "pIC50", "setting": "[2]", "value": "6.60 to 11.30"}]}
{"molecule": "CC1(C)C(=O)Nc2cc(Nc3nc4cccc(C(O)C5CCOCC5)n4n3)ccc21", "note": "(stereo not drawn) [Example 173, 6-(5-(hydroxy(tetrahydro-2H-pyran-4-yl)methyl)-[1,2,4]triazolo[1,5-a]pyridin-2-ylamino)-3,3-dimethylindolin-2-one]", "values": [{"measurement": "pIC50", "setting": "[2]", "value": "6.30 to 6.60"}]}
{"molecule": "NCCCOc1cccc2nc(Nc3ccc(C(F)(F)F)cc3)nn12", "note": "[Example 321, 5-(3-aminopropoxy)-N-(4-(trifluoromethyl)phenyl)-[1,2,4]triazolo[1,5-a]pyridin-2-amine]", "values": [{"measurement": "pIC50", "setting": "[1]", "value": "5.00 to 6.00"}]}
{"molecule": "O=C1NCCCN1Cc1cccc2nc(Nc3ccc(C(F)(F)F)cc3)nn12", "note": "[Example 286, 1-((2-(4-(trifluoromethyl)phenylamino)-[1,2,4]triazolo[1,5-a]pyridin-5-yl)methyl)tetrahydropyrimidin-2(1H)-one]", "values": [{"measurement": "pIC50", "setting": "[1]", "value": "5.00 to 6.00"}]}
{"molecule": "NCCNc1cc(-c2cccc3nc(Nc4ccccc4)nn23)ccn1", "note": "[Example 447, N^1-(4-(2-(phenylamino)-[1,2,4]triazolo[1,5-a]pyridin-5-yl)pyridin-2-yl)ethane-1,2-diamine]", "values": [{"measurement": "pIC50", "setting": "[3]", "value": "6.60 to 11.30"}]}
{"molecule": "OC[C@H](Nc1cccc2nc(Nc3ccc(C(F)(F)F)cc3)nn12)c1ccccc1", "note": "[Example 412, (R)-2-phenyl-2-(2-(4-(trifluoromethyl)phenylamino)-[1,2,4]triazolo[1,5-a]pyridin-5-ylamino)ethanol]", "values": [{"measurement": "pIC50", "setting": "[3]", "value": "5.00 to 6.00"}]}
{"molecule": "FC(F)(F)c1n[nH]c2cc(Nc3nc4cccc(NC5CCOCC5)n4n3)ccc12", "note": "[compound 129]", "values": [{"measurement": "pIC50", "setting": "[2]", "value": "6.30 to 6.60"}]}
{"molecule": "CN1C(=O)C(C)(C)c2ccc(Nc3nc4cccc(CN5CCNC(=O)C5)n4n3)cc21", "note": "[Example 136, 1,3,3-trimethyl-6-(5-((3-oxopiperazin-1-yl)methyl)-[1,2,4]triazolo[1,5-a]pyridin-2-ylamino)inolin-2-one]", "values": [{"measurement": "pIC50", "setting": "[2]", "value": "6.60 to 11.30"}]}
{"molecule": "c1ccc(Nc2nc3cccc(-c4cccc(-c5ncn[nH]5)c4)n3n2)cc1", "note": "[compound 62, 5-(3-(1H-1,2,4-triazol-5-yl)phenyl)-N-phenyl-[1,2,4]triazolo[1,5-a]pyridin-2-amine]", "values": [{"measurement": "pIC50", "setting": "[2]", "value": "6.30 to 6.60"}]}
{"molecule": "c1ccc(Nc2nc3cccc(-c4ccc5cn[nH]c5c4)n3n2)cc1", "note": "[Example 485, 5-(1H-indazol-6-yl)-N-phenyl-[1,2,4]triazolo[1,5-a]pyridin-2-amine]", "values": [{"measurement": "pIC50", "setting": "[3]", "value": "6.60 to 11.30"}]}
{"molecule": "O=C1NCc2cc(Nc3nc4cccc(-c5ccccc5)n4n3)ccc21", "note": "[compound 69, 5-(5-phenyl-[1,2,4]triazolo[1,5-a]pyridin-2-ylamino)isoindolin-1-one]", "values": [{"measurement": "pIC50", "setting": "[2]", "value": "6.30 to 6.60"}]}
{"molecule": "OC1CCN(c2cccc3nc(Nc4ccc(C(F)(F)F)cc4)nn23)C1", "note": "(stereo in doubt) [Example 333, (S)-1-(2-(4-(trifluoromethyl)phenylamino)-[1,2,4]triazolo[1,5-a]pyridin-5-yl)pyrrolidin-3-ol]", "values": [{"measurement": "pIC50", "setting": "[1]", "value": "6.30 to 6.60"}]}
{"molecule": "COCc1n[nH]c2cc(Nc3nc4cccc(N[C@H]5CC[C@@H](O)CC5)n4n3)ccc12", "note": "[Example 231, cis-4-(2-(3-(methoxymethyl)-1H-indazol-6-ylamino)-[1,2,4]triazolo[1,5-a]pyridin-5-ylamino)cyclohexanol]", "values": [{"measurement": "pIC50", "setting": "[1]", "value": "6.60 to 11.30"}]}
{"molecule": "Cc1n[nH]c2cc(Nc3nc4cccc(NC5CCOC5)n4n3)ccc12", "note": "(stereo in doubt) [Example 167, (R)-N^2-(3-methyl-1H-indazol-6-yl)-N^5-(tetrahydrofuran-3-yl)-[1,2,4]triazolo[1,5-a]pyridin-2,5-diamine]", "values": [{"measurement": "pIC50", "setting": "[2]", "value": "6.60 to 11.30"}]}
{"molecule": "O=C1CN(Cc2cccc3nc(Nc4ccc(C(F)(F)F)cc4)nn23)CN1", "note": "[Example 301, 1-((2-(4-(trifluoromethyl)phenylamino)-[1,2,4]triazolo[1,5-a]pyridin-5-yl)methyl)imidazolidin-4-one]", "values": [{"measurement": "pIC50", "setting": "[1]", "value": "5.00 to 6.00"}]}
{"molecule": "CC1(C)C(=O)Nc2cc(Nc3nc4cccc(N[C@@H]5CCOC5)n4n3)ccc21", "note": "[Example 150, (R)-3,3-dimethyl-6-(5-(tetrahydrofuran-4-ylamino)-[1,2,4]triazolo[1,5-a]pyridin-2-ylamino)indolin-2-one]", "values": [{"measurement": "pIC50", "setting": "[2]", "value": "6.60 to 11.30"}]}
{"molecule": "c1ccc(Nc2nc3cccc(NC4CCCNC4)n3n2)cc1", "note": "(stereo in doubt) [Example 497, (R)-N^2-phenyl-N^5-(piperidin-3-yl)-[1,2,4]triazolo[1,5-a]pyridin-2,5-diamine]", "values": [{"measurement": "pIC50", "setting": "[3]", "value": "5.00 to 6.00"}]}
